Measured values taken from US4843087A (priority 1986, dated 1989).
In brackets after ≈: the same amount, converted by molar mass.

What was measured:
[1] = tested on: Polio 2; experiment: microbe, parasite or virus in culture; type: cell-based, poliovirus; conditions: Enterovirus C, HeLa, read-out: Polio 2 MIC
[2] = tested on: human rhinovirus (HRV) serotypes; experiment: microbe, parasite or virus in culture; type: cell-based; conditions: for MIC50: read-out: Rhinovirus MIC50; for IC (MIC80 of serotype panel): read-out: Rhinovirus MIC80

Row | SMILES | MIC [1] [µg/mL] | MIC50 [2] [µg/mL] | IC (MIC80 of serotype panel) [2] [µg/mL]
1 | Cc1cc(CCCCCCOc2ccc(C3=NCCO3)cc2)on1 [14(b), 5-{6-[4-(4,5-Dihydro-2-oxazolyl)phenoxy]hexyl}-3-methylisoxazole] | 0.017 (≈ 0.0518 µM) | 0.8 (≈ 2.44 µM) | 25.5
2 | Cc1cc(CCCCCCCOc2ccc(C3=NCCO3)cc2F)on1 [19(b), 5-{7-[4-(4,5-Dihydro-2-oxazolyl)-2-fluorophenoxy]heptyl}-3-methylisoxazole] | 0.3 (≈ 0.832 µM) | 0.8 (≈ 2.22 µM) | 99
3 | Cc1cc(CCCCOc2ccc(C3=NCCO3)cc2)on1 [21 (b), 5-{4-[4-(4,5-Dihydro-2-oxazolyl)phenoxy]butyl}-3-methylisoxazole] | 0.5 (≈ 1.66 µM) | – | –
4 | Cc1noc(CCCCCCCOc2ccc(C3=NCCO3)cc2)c1CO [29(b), 5-{7-[4-(4,5-Dihydro-2-oxazolyl)phenoxy]heptyl}-3-methyl-4-isoxazolemethanol] | 0.02 (≈ 0.0537 µM) | 1.25 (≈ 3.34 µM) | 1.7
5 | Cc1cc(CCCCCCCOc2ccc(C3=NCCO3)cc2C)on1 [31(b), 5-{7-[4-(4,5-Dihydro-2-oxazolyl)-2-methylphenoxy]heptyl}-3-methylisoxazole] | 0.36 (≈ 1.01 µM) | 0.15 (≈ 0.421 µM) | 0.56
6 | Cc1cc(CCCCCCCOc2ccc(C3=NCC(C)O3)cc2)on1 (centres unmarked) [34(b), 5-{7-[4-(4,5-Dihydro-5-methyl-2-oxazolyl)phenoxy]heptyl}-3-methylisoxazole] | 0.49 (≈ 1.37 µM) | 0.2 (≈ 0.561 µM) | 26.5
7 | Cc1cc(CCCCCCCOc2ccc(C3=NCCO3)c(C)c2)on1 [38(b), 5-{7-[4-(4,5-Dihydro-2-oxazolyl)-3-methylphenoxy]heptyl}-3-methylisoxazole] | 0.3 (≈ 0.842 µM) | 0.69 (≈ 1.94 µM) | 0.9
8 | COc1cc(C2=NCCO2)ccc1OCCCCCCCc1cc(C)no1 [41(b), 5-{7-[4-(4,5-Dihydro-2-oxazolyl)-2-methoxyphenoxy]heptyl}-3-methylisoxazole] | 1 (≈ 2.68 µM) | 0.55 (≈ 1.48 µM) | 4
9 | Cc1cc(CCCCCCCOc2ccc(-c3ncco3)cc2)on1 [87(b), 3-Methyl-5-{7-[4-(2-oxazolyl)phenoxy]heptyl}isoxazole] | 0.04 (≈ 0.118 µM) | – | –
10 | Cc1cc(CCCCCOc2ccc(-c3nc(C)c(C)o3)cc2)on1 [89(d), 5-{5-[4-(4,5-Dimethyl-2-oxazolyl)phenoxy]pentyl}-3-methylisoxazole] | 0.16 (≈ 0.47 µM) | 0.19 (≈ 0.558 µM) | 0.77
11 | Cc1cc(CCCCCOc2ccc(-c3ncc(C)o3)cc2)on1 [93(f), 3-Methyl-5-{5-[4-(5-methyl-2-oxazolyl)phenoxy]pentyl}-isoxazole] | 0.09 (≈ 0.276 µM) | 0.09 (≈ 0.276 µM) | 1.3
12 | Cc1cc(CCCCCCCOc2ccc(C3=NCCCO3)cc2)on1 [94(c), 5,6-Dihydro-2-{4-[7-(3-methyl-5-isoxazolyl)heptyloxy]phenyl}-4H-1,3-oxazine] | 0.8 (≈ 2.24 µM) | 1.06 (≈ 2.97 µM) | 99
13 | Cc1cc(CCCCCOc2c(C)cc(-c3cnco3)cc2C)on1 [97(b), 5-{5-[2,6-Dimethyl-4-(5-oxazolyl)phenoxy]pentyl}-3-methylisoxazole] | 5.4 (≈ 15.9 µM) | 0.135 (≈ 0.397 µM) | 0.76
14 | Cc1cc(CCC2CCC(COc3ccc(C4=NCCO4)cc3)CC2)on1 (centres unmarked) [101 (b), 5-{2-[4-[[4-(4,5-Dihydro-2-oxazolyl)phenoxy]methyl]cyclohexyl]ethyl}-3-methylisoxazole] | 0.65 (≈ 1.76 µM) | – | –
15 | Cc1cc(CCCCCSc2ccc(C3=NCCO3)cc2)on1 [103(c), 5-{5-[[4-(4,5-Dihydro-2-oxazolyl)phenyl]thio]pentyl}-3-methylisoxazole] | 0.37 (≈ 1.12 µM) | 0.57 (≈ 1.72 µM) | 27.1
16 | Cc1cc(CCCCCOc2c(Cl)cc(C(=O)NCCCl)cc2Br)on1 [152(c), 3-Bromo-5-chloro-N-(2-chloroethyl)-4-{[5-(3-methyl-5-isoxazolyl)pentyl]oxy}benzamide] | 2.1 (≈ 4.52 µM) | 0.14 (≈ 0.302 µM) | 0.6
17 | Cc1cc(CCCCCOc2c(Cl)cc(C3=NCCO3)cc2Br)on1 [152(d), 5-{5-[2-Bromo-6-chloro-4-(4,5-dihydro-2-oxazolyl)phenoxy]pentyl}-3-methylisoxazole] | 0.97 (≈ 2.27 µM) | 0.095 (≈ 0.222 µM) | 0.23
18 | Cc1cc(CCCCCOc2c(Cl)cc(C(=O)NCCCl)cc2[N+](=O)[O-])on1 [153(c), 3-Chloro-N-(2-chloroethyl)-4-{[5-(3-methyl-5-isoxazolyl)pentyl]oxy}-5-nitrobenzamide] | 0.86 (≈ 2 µM) | 0.08 (≈ 0.186 µM) | 0.23
19 | Cc1cc(CCCCCOc2c(Cl)cc(C3=NCCO3)cc2[N+](=O)[O-])on1 [153(d), 5-{5-[2-Chloro-4-(4,5-dihydro-2-oxazolyl)-6-nitrophenoxy]pentyl}-3-methylisoxazole] | 0.4 (≈ 1.02 µM) | 0.09 (≈ 0.229 µM) | 0.18
20 | Cc1cc(CCCCCOc2c(C)cc(C(=O)NCCCl)cc2Cl)on1 [154(b), 3-Chloro-N-(2-chloroethyl)-5-methyl-4 -{[5-(3-methyl-5-isoxazolyl)pentyl]oxy}benzamide] | 1.13 (≈ 2.83 µM) | 0.17 (≈ 0.426 µM) | 0.63

Row | SMILES | MIC [1] [µg/mL] | MIC50 [2] [µg/mL] | IC (MIC80 of serotype panel) [2] [µg/mL]
21 | Cc1cc(CCCCCOc2c(C)cc(C3=NCCO3)cc2Cl)on1 [154(c), 5-{5-[2-Chloro-4-(4,5-dihydro-2-oxazolyl)-6-methylphenoxy]pentyl}-3-methylisoxazole] | 0.8 (≈ 2.2 µM) | 0.22 (≈ 0.606 µM) | 0.33
22 | CCc1cc(C(=O)NCCCl)cc(C)c1OCCCCCc1cc(C)no1 [157(c), N-(2-Chloroethyl)-3-ethyl-5-methyl-4-{[5-(3-methyl-5-isoxazolyl)pentyl]oxy}benzamide] | 2.1 (≈ 5.34 µM) | 0.49 (≈ 1.25 µM) | 1.2
23 | CCc1cc(C2=NCCO2)cc(C)c1OCCCCCc1cc(C)no1 [157(d), 5-{5-[4-(4,5-Dihydro-2-oxazolyl)-2-ethyl-6-methylphenoxy]pentyl}-3-methylisoxazole] | 3.3 (≈ 9.26 µM) | 1.25 (≈ 3.51 µM) | 2.5
24 | COc1cc(C(=O)NCCCl)cc(OC)c1OCCCCCc1cc(C)no1 [158(b), N-(2-Chloroethyl)-3,5-dimethoxy-4-{[5-(3-methyl-5-isoxazolyl)pentyl]oxy}benzamide] | 2 (≈ 4.87 µM) | 1.73 (≈ 4.21 µM) | 4.7
25 | COc1cc(C2=NCCO2)cc(OC)c1OCCCCCc1cc(C)no1 [158(d), 5-{5-[4-(4,5-Dihydro-2-oxazolyl)-2,6-dimethoxyphenoxy]pentyl}-3-methylisoxazole] | 1 (≈ 2.67 µM) | 2.1 (≈ 5.61 µM) | 5
26 | Cc1cc(CCCCCOc2c(F)cc(C3=NCCO3)cc2F)on1 [159(c), 5-{5-[4-(4,5-Dihydro-2-oxazolyl)-2,6-difluorophenoxy]-pentyl}-3-methylisoxazole] | 0.12 (≈ 0.342 µM) | 0.15 (≈ 0.428 µM) | 0.66
27 | Cc1cc(CCCCCOc2c(F)c(F)c(C3=NCCO3)c(F)c2F)on1 [161(c), 5-{5-[4-(4,5-Dihydro-2-oxazolyl)-2,3,5,6-tetrafluorophenoxy]pentyl}-3-methylisoxazole] | 0.05 (≈ 0.129 µM) | 0.25 (≈ 0.647 µM) | 3.5
28 | Cc1cc(CCCCCOc2c(Cl)cc(C(=O)NCCCl)cc2Cl)on1 [162(c), 3,5-Dichloro-N-(2-chloroethyl)-4-{[5-(3-methyl-5-isoxazolyl)pentyl]oxy}benzamide] | 0.48 (≈ 1.14 µM) | 0.16 (≈ 0.381 µM) | 0.28
29 | Cc1cc(CCCCCCc2c(Cl)cc(C3=NCCO3)cc2Cl)on1 [163(b), 5-{6-[2,6-Dichloro-4-(4,5-dihydro-2-oxazolyl)phenyl]hexyl}-3-methylisoxazole] | 1.4 (≈ 3.67 µM) | 0.49 (≈ 1.29 µM) | 0.73
30 | OCc1cc(CCCCCCCOc2ccc(C3=NCCO3)cc2)on1 [Example 11, 5-{7-[4-(4,5-Dihydro-2-oxazolyl)phenoxy]heptyl}-3-isoxazolemethanol] | 0.02 (≈ 0.0558 µM) | – | –
31 | Cc1cc(C(O)CCCCCCOc2ccc(C3=NCCO3)cc2)on1 (stereo not drawn) [Example 12, α-{6-[4-(4,5-dihydro-2-oxazolyl)phenoxy]hexyl}-3-methyl-5-isoxazolemethanol] | 0.08 (≈ 0.223 µM) | – | –
32 | Cc1cc(CCCCCCCCOc2ccc(C3=NCCO3)cc2Cl)on1 [Example 22, 5-{8-[2-Chloro-4-(4,5-dihydro-2-oxazolyl)phenoxy]octyl}-3-methylisoxazole] | 1.1 (≈ 2.81 µM) | – | –
33 | CC(=O)OCc1cc(CCCCCCCOc2ccc(C3=NCCO3)cc2)on1 [Example 28, 5-{7-[4-(4,5-Dihydro-2-oxazolyl)phenoxy]heptyl}-3-isoxazolemethanol acetate] | 0.007 | – | –
34 | Cc1cc(CCCCCOc2cccc(C3=NCCO3)c2)on1 [Example 30, 5-{5-[3-(4,5-Dihydro-2-oxazolyl)phenoxy]pentyl}-3-methylisoxazole] | > 0.2 | – | –
35 | Cc1cc(CCCCCOc2ccc(C3=NCCO3)cc2Cl)no1 [Example 37, 3-{5-[2-Chloro-4-(4,5-dihydro-2-oxazolyl)phenoxy]pentyl}-5-methylisoxazole] | 0.4 (≈ 1.15 µM) | – | –
36 | Cc1cc(CCCCCCCOc2ccc(C3=NCCO3)cc2C=O)on1 [Example 69, 5-{7-[4-(4,5-Dihydro-2-oxazolyl)-2-formylphenoxy]heptyl}-3-methylisoxazole] | 0.44 (≈ 1.19 µM) | – | –
37 | Cc1cc(CCCOCOCCOc2ccc(C3=NCCO3)cc2)on1 [Example 73, 5-{3-[[2-[4-(4,5-Dihydro-2-oxazolyl)phenoxy]ethoxy]methoxy]propyl}-3-methylisoxazole] | 0.46 (≈ 1.28 µM) | – | –
38 | Cc1cc(CCCCCCCOc2ccc(C3=NC[C@@H](C)O3)cc2)on1 [Example 123, (R)-5-{7-[4-(4,5-Dihydro-5-methyl-2-oxazolyl)phenoxy]heptyl}-3-methylisoxazole] | 1.01 (≈ 2.83 µM) | – | –
39 | Cc1cc(CCCCCOc2c(C)cc(C3=NCCO3)c(Cl)c2C)on1 [Example 160, 5-{5-[3-Chloro-4-(4,5-dihydro-2-oxazolyl)-2,6-dimethylphenoxy]pentyl}-3-methylisoxazole] | – | 0.24 (≈ 0.637 µM) | 0.4
